Data reported in patent US7211572B2 (Japan Tobacco Inc., priority 2003, dated 2007).
Where a name gives a salt, the structure may show the parent alone.

What follows are compounds tested against T1, HIV integrase (Human immunodeficiency virus type 1 group M subtype B, UniProt P12497, F1332H) (assay: Determination of enzyme (HIV integrase) inhibitory activity). Settings: recombinant HIV integrase (F185H), strand transfer ELISA, absorbance at 450 nm.
T1 construct: HIV integrase full length gene; made in house; host or cells: Escherichia coli BL21(DE3), plasmid pET21a-INH
Type: biochemical
Outline: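 Full-length integrase with F185H, expressed in E. coli and purified, was reacted for 60 min at 37 °C with compound and biotinylated donor DNA bound to streptavidin plates. Target DNA was added for 10 min, then anti-digoxigenin-peroxidase detection at A450; IC50 from % inhibition versus enzyme-free blank.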

| Compound | IC50 |
| --- | --- |
| O=c1ccn2ccn(Cc3cccc(Cl)c3O)c(=O)c2c1O [Example 179, 2-(3-chloro-2-hydroxybenzyl)-9-hydroxy-2H-pyrido[1,2-a]pyrazine-1,8-dione hydrochloride] | 10 to 100 nM |
| O=C(NCc1ccccc1)c1cn2ccn(Cc3cccc(Cl)c3)c(=O)c2c(O)c1=O [Example 180, N-benzyl-2-(3-chlorobenzyl)-9-hydroxy-1,8-dioxo-1,8-dihydro-2H-pyrido[1,2-a]pyrazine-7-carboxamide] | < 10 nM |
| O=C(NCC(F)(F)F)c1cn2ccn(Cc3cccc(Cl)c3)c(=O)c2c(O)c1=O [Example 181, N-(2,2,2-trifluoroethyl)-2-(3-chlorobenzyl)-9-hydroxy-1,8-dioxo-1,8-dihydro-2H-pyrido[1,2-a]pyrazine-7-carboxamide] | 10 to 100 nM |
| CCCCN(C)C(=O)c1cn2ccn(Cc3cccc(Cl)c3)c(=O)c2c(O)c1=O [Example 182, N-butyl-N-methyl-2-(3-chlorobenzyl)-9-hydroxy-1,8-dioxo-1,8-dihydro-2H-pyrido[1,2-a]pyrazine-7-carboxamide] | 10 to 100 nM |
| COCCN(C)C(=O)c1cn2ccn(Cc3cccc(Cl)c3)c(=O)c2c(O)c1=O [Example 183, N-(2-methoxyethyl)-N-methyl-2-(3-chlorobenzyl)-9-hydroxy-1,8-dioxo-1,8-dihydro-2H-pyrido[1,2-a]pyrazine-7-carboxamide] | 10 to 100 nM |
| O=C(c1cn2ccn(Cc3cccc(Cl)c3)c(=O)c2c(O)c1=O)N1CCCC1 [Example 184, 2-(3-chlorobenzyl)-9-hydroxy-7-(pyrrolidine-1-carbonyl)-2H-pyrido[1,2-a]pyrazine-1,8-dione] | 10 to 100 nM |
| O=C(c1cn2ccn(Cc3cccc(Cl)c3)c(=O)c2c(O)c1=O)N1CCOCC1 [Example 185, 2-(3-chlorobenzyl)-9-hydroxy-7-(morpholine-4-carbonyl)-2H-pyrido[1,2-a]pyrazine-1,8-dione] | 10 to 100 nM |
| COc1cc(Cn2ccn3ccc(=O)c(O)c3c2=O)ccc1Cl [Example 186, 2-(4-chloro-3-methoxybenzyl)-9-hydroxy-2H-pyrido[1,2-a]pyrazine-1,8-dione hydrochloride] | 10 to 100 nM |
| COC(=O)Cc1cn2ccn(Cc3cccc(Cl)c3)c(=O)c2c(O)c1=O [Example 187, methyl [2-(3-chlorobenzyl)-9-hydroxy-1,8-dioxo-1,8-dihydro-2H-pyrido[1,2-a]pyrazin-7-yl]acetate] | 10 to 100 nM |
| O=c1c(-c2nnn[nH]2)cn2ccn(Cc3cccc(Cl)c3)c(=O)c2c1O [Example 188, 2-(3-chlorobenzyl)-9-hydroxy-7-(1H-tetrazol-5-yl)-2H-pyrido[1,2-a]pyrazine-1,8-dione hydrochloride] | 10 to 100 nM |
| CNC(=O)Cc1cn2ccn(Cc3cccc(Cl)c3)c(=O)c2c(O)c1=O [Example 189, 2-[2-(3-chlorobenzyl)-9-hydroxy-1,8-dioxo-1,8-dihydro-2H-pyrido[1,2-a]pyrazin-7-yl]-N-methylacetamide] | 10 to 100 nM |
| CN(C)C(=O)Cc1cn2ccn(Cc3cccc(Cl)c3)c(=O)c2c(O)c1=O [Example 190, 2-[2-(3-chlorobenzyl)-9-hydroxy-1,8-dioxo-1,8-dihydro-2H-pyrido[1,2-a]pyrazin-7-yl]-N,N-dimethylacetamide] | 10 to 100 nM |
| O=C(O)Cc1cn2ccn(Cc3cccc(Cl)c3)c(=O)c2c(O)c1=O [Example 191, [2-(3-chlorobenzyl)-9-hydroxy-1,8-dioxo-1,8-dihydro-2H-pyrido[1,2-a]pyrazin-7-yl]acetic acid] | 10 to 100 nM |
| CC(O)CNC(=O)c1cn2ccn(Cc3cccc(Cl)c3)c(=O)c2c(O)c1=O (stereo not drawn) [Example 192, N-(2-hydroxypropyl)-2-(3-chlorobenzyl)-9-hydroxy-1,8-dioxo-1,8-dihydro-2H-pyrido[1,2-a]pyrazine-7-carboxamide hydrochloride] | 10 to 100 nM |
| O=C(O)CNC(=O)c1cn2ccn(Cc3cccc(Cl)c3)c(=O)c2c(O)c1=O [Example 193, {[2-(3-chlorobenzyl)-9-hydroxy-1,8-dioxo-1,8-dihydro-2H-pyrido[1,2-a]pyrazine-7-carbonyl]amino}acetic acid] | 10 to 100 nM |
| CN(C)C(=O)CNC(=O)c1cn2ccn(Cc3cccc(Cl)c3)c(=O)c2c(O)c1=O [Example 194, N-dimethylcarbamoylmethyl-2-(3-chlorobenzyl)-9-hydroxy-1,8-dioxo-1,8-dihydro-2H-pyrido[1,2-a]pyrazine-7-carboxamide] | 10 to 100 nM |
| CNC(=O)CNC(=O)c1cn2ccn(Cc3cccc(Cl)c3)c(=O)c2c(O)c1=O [Example 195, N-methylcarbamoylmethyl-2-(3-chlorobenzyl)-9-hydroxy-1,8-dioxo-1,8-dihydro-2H-pyrido[1,2-a]pyrazine-7-carboxamide] | 10 to 100 nM |
| O=C(Nc1ccccc1)c1cn2ccn(Cc3cccc(Cl)c3)c(=O)c2c(O)c1=O [Example 196, N-phenyl-2-(3-chlorobenzyl)-9-hydroxy-1,8-dioxo-1,8-dihydro-2H-pyrido[1,2-a]pyrazine-7-carboxamide hydrochloride] | 10 to 100 nM |

| Compound | IC50 |
| --- | --- |
| O=c1c(-c2ncco2)cn2ccn(Cc3cccc(Cl)c3)c(=O)c2c1O [Example 197, 2-(3-chlorobenzyl)-9-hydroxy-7-(oxazol-2-yl)-2H-pyrido[1,2-a]pyrazine-1,8-dione hydrochloride] | 10 to 100 nM |
| O=C(c1cn2ccn(Cc3cccc(Cl)c3)c(=O)c2c(O)c1=O)N1CCC(O)C1 (stereo not drawn) [Example 198, 2-(3-chlorobenzyl)-9-hydroxy-7-(3-hydroxypyrrolidine-1-carbonyl)-2H-pyrido[1,2-a]pyrazine-1,8-dione hydrochloride] | 10 to 100 nM |
| CC(=O)CNC(=O)c1cn2ccn(Cc3cccc(Cl)c3)c(=O)c2c(O)c1=O [Example 199, N-(2-oxopropyl)-2-(3-chlorobenzyl)-9-hydroxy-1,8-dioxo-1,8-dihydro-2H-pyrido[1,2-a]pyrazine-7-carboxamide] | 10 to 100 nM |
| O=C(Cn1ccn2ccc(=O)c(O)c2c1=O)Nc1ccccc1 [Example 200, 2-(9-hydroxy-1,8-dioxo-1,8-dihydro-pyrido[1,2-a]pyrazin-2-yl)-N-phenylacetamide hydrochloride] | 100 to 1000 nM |
| O=C1CCN(C(=O)c2cn3ccn(Cc4cccc(Cl)c4)c(=O)c3c(O)c2=O)C1 [Example 201, 2-(3-chlorobenzyl)-9-hydroxy-7-(3-oxopyrrolidine-1-carbonyl)-2H-pyrido[1,2-a]pyrazine-1,8-dione] | 10 to 100 nM |
| COc1ccc(Cl)cc1Cn1ccn2ccc(=O)c(O)c2c1=O [Example 202, 2-(5-chloro-2-methoxybenzyl)-9-hydroxy-2H-pyrido[1,2-a]pyrazine-1,8-dione hydrochloride] | 10 to 100 nM |
| CS(=O)(=O)Nc1cn2ccn(Cc3cccc(Cl)c3)c(=O)c2c(O)c1=O [Example 203, N-[2-(3-chlorobenzyl)-9-hydroxy-1,8-dioxo-1,8-dihydro-2H-pyrido[1,2-a]pyrazin-7-yl]methanesulfonamide] | < 10 nM |
| CC(=O)c1cn2ccn(Cc3cccc(Cl)c3)c(=O)c2c(O)c1=O [Example 204, 7-acetyl-2-(3-chlorobenzyl)-9-hydroxy-2H-pyrido[1,2-a]pyrazine-1,8-dione hydrochloride] | < 10 nM |
| CCC(=O)c1cn2ccn(Cc3cccc(Cl)c3)c(=O)c2c(O)c1=O [Example 205, 2-(3-chlorobenzyl)-9-hydroxy-7-propionyl-2H-pyrido[1,2-a]pyrazine-1,8-dione hydrochloride] | < 10 nM |
| O=c1ccn2ccn(C/C=C/c3ccccc3)c(=O)c2c1O [Example 206, 9-hydroxy-2-(3-phenylallyl)-2H-pyrido[1,2-a]pyrazine-1,8-dione] | 10 to 100 nM |
| CNC(=O)c1cn2ccn(Cc3ccc(F)c(Cl)c3)c(=O)c2c(O)c1=O [Example 207, N-methyl-2-(3-chloro-4-fluorobenzyl)-9-hydroxy-1,8-dioxo-1,8-dihydro-2H-pyrido[1,2-a]pyrazine-7-carboxamide] | < 10 nM |
| CN(C)C(=O)c1cn2ccn(Cc3ccc(F)c(Cl)c3)c(=O)c2c(O)c1=O [Example 208, N,N-dimethyl-2-(3-chloro-4-fluorobenzyl)-9-hydroxy-1,8-dioxo-1,8-dihydro-2H-pyrido[1,2-a]pyrazine-7-carboxamide] | < 10 nM |
| CS(=O)(=O)CCNC(=O)c1cn2ccn(Cc3cccc(Cl)c3)c(=O)c2c(O)c1=O [Example 209, N-(2-methanesulfonylethyl)-2-(3-chlorobenzyl)-9-hydroxy-1,8-dioxo-1,8-dihydro-2H-pyrido[1,2-a]pyrazine-7-carboxamide] | 10 to 100 nM |
| O=C(NCCN1CCCC1=O)c1cn2ccn(Cc3cccc(Cl)c3)c(=O)c2c(O)c1=O [Example 210, N-[2-(2-oxopyrrolidin-1-yl)ethyl)-2-(3-chlorobenzyl)-9-hydroxy-1,8-dioxo-1,8-dihydro-2H-pyrido[1,2-a]pyrazine-7-carboxamide] | 10 to 100 nM |
| CN(c1cn2ccn(Cc3cccc(Cl)c3)c(=O)c2c(O)c1=O)S(C)(=O)=O [Example 211, N-[2-(3-chlorobenzyl)-9-hydroxy-1,8-dioxo-1,8-dihydro-2H-pyrido[1,2-a]pyrazin-7-yl]-N-methylmethanesulfonamide] | < 10 nM |
| COc1cc(Cl)cc(Cn2ccn3ccc(=O)c(O)c3c2=O)c1 [Example 212, 2-(3-chloro-5-methoxybenzyl)-9-hydroxy-2H-pyrido[1,2-a]pyrazine-1,8-dione hydrochloride] | 10 to 100 nM |
| O=C(NCc1ccncc1)c1cn2ccn(Cc3cccc(Cl)c3)c(=O)c2c(O)c1=O [Example 213, N-(pyridin-4-ylmethyl)-2-(3-chlorobenzyl)-9-hydroxy-1,8-dioxo-1,8-dihydro-2H-pyrido[1,2-a]pyrazine-7-carboxamide] | 10 to 100 nM |
| O=C(NCc1ccc(F)cc1)c1cn2ccn(Cc3cccc(Cl)c3)c(=O)c2c(O)c1=O [Example 214, N-(4-fluorobenzyl)-2-(3-chlorobenzyl)-9-hydroxy-1,8-dioxo-1,8-dihydro-2H-pyrido[1,2-a]pyrazine-7-carboxamide] | < 10 nM |
